In patent publication US12151000B2, “Tolerogenic artificial antigen-presenting cells” (THE JOHNS HOPKINS UNIVERSITY, priority 2019, dated 2024):

What was measured:
[1] = system: CD4^+ T cells from B6 mice; assay: In vitro FOXP3+ cell expansion in B6 CD4+ T cells; type: cell-based, mouse; conditions: 3 days
Method: F5111 IC LN35-loaded microparticles or free F5111 IC LN35 (at a dose equivalent to the particle loading dose) were incubated with CD4+ cells from B6 mice for 3 days, and cells were analyzed for FOXP3 expression via flow cytometry.
To determine whether F5111 IC-encapsulated MPs could induce in vitro TReg cell expansion, CD4^+ T cells were isolated from the spleens of B6 mice and incubated with unconjugated F5111 IC or F5111 IC-loaded PLGA MPs for 3 days. Cells were then stained for CD4, CD25, and FOXP3, and analyzed using flow cytometry.

[2] = system: IL-2Rα^+ YT-1 cells; assay: YT-1 cell STAT5 phosphorylation, IL-2Rα+ cells; type: cell-based, human; conditions: for selective activation of IL-2Rα^+ TReg-like cells over IL-2Rα^− TEff-like cells (bias): YT-1 cells with or without IL-2Rα; for STAT5 activation on IL-2Rα^+ YT-1 cells: flow cytometry, 20 minutes stimulation
Method: (§1) YT-1 cell STAT5 phosphorylation studies. Approximately 2×10^5 IL-2Rα^− YT-1 or IL-2Rα^+ YT-1 cells were plated in each well of a 96-well plate and re-suspended in RPMI complete medium containing serial dilutions of the indicated treatments. Cytokine/antibody complexes were formed by incubating a 1:1 molar ratio of F5111 antibody to hIL-2 for 1 hour at 37° C. Cells were stimulated for 20 minutes at 37° C. and immediately fixed by addition of formaldehyde to 1.5% and 10 minute incubation at room temperature. Permeabilization of cells was achieved by resuspension in ice-cold 100% methanol for 30 minutes at 4° C. Fixed and permeabilized cells were washed twice with FACS buffer (phosphate-buffered saline [PBS] pH 7.2 containing 0.1% BSA [Thermo Fisher Scientific]) and incubated with Alexa Fluor® 647-conjugated anti-STAT5 pY694 (BD Biosciences) diluted in FACS buffer for 2 hours at room temperature. Cells were then washed twice in FACS buffer and mean fluorescence intensity (MFI) was determined on a CytoFLEX flow cytometer (Beckman-Coulter). Dose-response curves were fitted to a logistic model and half-maximal effective concentrations (EC50s) were calculated using GraphPad Prism data analysis software after subtraction of the mean fluorescence intensity (MFI) of unstimulated cells and normalization to the maximum signal intensity.
(§2) A cell signaling assay was performed on YT-1 human NK cells with or without IL-2Rα.

[3] = system: IL-2Rα^− YT-1 cells; assay: YT-1 cell STAT5 phosphorylation, IL-2Rα− cells; type: cell-based, human; conditions: flow cytometry, 20 minutes stimulation
Method: as §1, §2

[4] = system: CD4+ T cells from C57BL/6 mice; assay: pSTAT5 expression in C57BL/6 CD4+ T cells; type: cell-based, mouse
Method: FIG. 22 is a graph showing the results of B6 CD4+ cells stimulation with titrated encapsulated particle doses or equivalent free doses of F5111 for different lengths of time, and the analysis of pSTAT5 expression using flow cytometry. A dose titration for free and MP-loaded F5111 IC LN35 was observed, with maximum pSTAT5 expression achieved after 1 hour of stimulation.
To evaluate the functionality of F5111 IC-loaded particles, mouse CD4+ T cells were stimulated with F5111 IC-loaded microparticles to identify an optimal stimulation time for maximum pSTAT5 expression, and pSTAT5 expression was compared to that of cells stimulated with free F5111 IC. CD4+ T cells were isolated from C57BL/6 mice and incubated with various doses of F5111 IC-loaded microparticles or equivalent doses of free F5111 IC for 20, 40, 60, or 120 minutes.

[5] = system: human PBMCs (TReg cells, CD8^+ and CD4^+ effector T cells); assay: Human PBMC STAT5 phosphorylation in T cell subsets; type: cell-based; conditions: human PBMCs from healthy donor whole blood
Method: Human PBMC STAT5 phosphorylation studies. Human PBMCs were isolated from whole blood of healthy donors via Ficoll gradient following manufacturer protocols and then incubated with ACK lysis buffer for removal of red blood cells. Approximately 1×10^6 human PBMCs were plated in each well of a 96-well plate and re-suspended in RPMI complete medium containing serial dilutions of the indicated treatments. Cytokine/antibody complexes were formed by incubating a 1:1 molar ratio of F5111 antibody to hIL-2 for 1 hour at 37° C. Cells were stimulated for 20 minutes at 37° C. and immediately fixed by addition of 1X Fix/Perm Buffer (BD Biosciences) and 50 minute incubation at 4° C. Permeabilization of cells was achieved by resuspension in Perm Buffer III (BD Biosciences) overnight at −20° C. […] Cells were then washed twice in FACS buffer and MFI was determined on a CytoFLEX flow cytometer (Beckman-Coulter). Dose-response curves were fitted to a logistic model and half-maximal effective concentrations (EC50s) were calculated using GraphPad Prism data analysis software after subtraction of the mean fluorescence intensity (MFI) of unstimulated cells and normalization to the maximum signal intensity. […]

[6] = target: T1, IL-2Rβ (Homo sapiens, UniProt P14784); assay: Bio-layer interferometry binding to immobilized IL-2Rβ
T1 construct: the extracellular domains of the hIL-2Rα (residues 1-214) and hIL-2Rβ (residues 1-214) receptor subunits; hexahistidine (C); made in house; host or cells: HEK 293F
T1 sequence (P14784 27-240): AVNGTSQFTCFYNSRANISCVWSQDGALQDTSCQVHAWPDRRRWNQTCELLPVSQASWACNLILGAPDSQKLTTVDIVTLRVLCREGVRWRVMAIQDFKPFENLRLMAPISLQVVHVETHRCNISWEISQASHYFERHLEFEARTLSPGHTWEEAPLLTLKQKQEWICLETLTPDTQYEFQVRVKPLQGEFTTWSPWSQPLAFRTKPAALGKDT
Method: (§3) Bio-layer interferometry binding studies. […] Less than 5 signal units (nm) of receptor was immobilized to minimize mass transfer effects. […] An irrelevant protein was included in a reference well to subtract non-specific binding. Surface regeneration for all interactions was conducted using a 15 second exposure to 0.1 M glycine pH 3.0. Experiments were carried out in PBSA (phosphate-buffered saline, pH 7.3 plus 0.1% bovine serum albumin (BSA, Thermo Fisher Scientific)) at 25° C. Data was visualized and processed using the Octet® Data Analysis software version 7.1 (Molecular Devices). Equilibrium titration curve fitting and KD value determination was implemented using GraphPad Prism, assuming all binding interactions to be first order. Experiments were reproduced two times with similar results.
(§4) The binding affinities were also evaluated using bio-layer interferometry on an OCTET® instrument with biotinylated hIL-2 immobilized on a streptavidin-coated tip (FIG. 6B). […] Bio-layer interferometry based binding studies were also conducted to assess the interaction between F5111 IC LN15 and the IL-2Rα and IL-2Rβ receptor chains, to ensure that the single-chain antibody/cytokine fusion was biased toward engagement of IL-2Rα (which is highly expressed on TReg cells but not effector cells) compared with IL-2Rβ.
(§5) Additionally, binding interactions between F5111 IC LN25 and LN35 with the human IL-2Rα (hIL-2Rα) and hIL-2Rβ subunits were measured using bio-layer interferometry on an Octet® instrument by immobilizing biotinylated hIL-2Rα and IL-2Rβ on streptavidin-coated tips.

[7] = target: T2, human IL-2 (hIL-2) (Homo sapiens, UniProt P60568); assay: Yeast surface binding study, yeast-displayed hIL-2, flow cytometry; conditions: yeast surface-displayed hIL-2
T2 construct: hIL-2 (residues 1-133) or mIL-2 (residues 1-149) were cloned into the pCT302 vector; made in house; host or cells: yeast (surface display)
T2 sequence (P60568 21-153): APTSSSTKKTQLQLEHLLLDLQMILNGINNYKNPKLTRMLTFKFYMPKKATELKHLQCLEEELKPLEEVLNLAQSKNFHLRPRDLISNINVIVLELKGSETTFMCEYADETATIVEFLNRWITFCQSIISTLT
Method: Yeast surface binding studies. For antibody binding studies on yeast, hIL-2 (residues 1-133) or mIL-2 (residues 1-149) were cloned into the pCT302 vector and presented on the surface of yeast, as described previously (Boder et al., Nat. Biotechnol., 15(6): 553-557 (1997)). […] Cells were then washed and stained with a 1:200 dilution of Alexa647-conjugated streptavidin (Thermo) in PBSA for 15 minutes at 4° C. After a final wash, cells were analyzed for antibody binding using a CytoFLEX flow cytometer (Beckman Coulter). Background-subtracted and normalized binding curves were fitted to a first-order binding model and equilibrium dissociation constant (KD) values were determined using GraphPad Prism. Studies were performed three times with similar results.
A rapid small-scale HEK 293F cell transfection assay was developed to optimize immunocytokine expression. Cells were transfected in 6-well plates with predefined ratios of heavy chain (HC) and IL-2-fused light chain (LC) plasmid DNA. After a 3-day incubation, secreted protein was captured from the supernatant with protein G resin, eluted with 0.1 M glycine pH 2.0, and analyzed via SDS-PAGE. […]
(§6) The binding affinities were also evaluated using bio-layer interferometry on an OCTET® instrument with biotinylated hIL-2 immobilized on a streptavidin-coated tip (FIG. 6B). […]

[8] = target: T3, IL-2Rα (Homo sapiens, UniProt P01589); assay: Bio-layer interferometry binding to immobilized IL-2Rα
T3 construct: the extracellular domains of the hIL-2Rα (residues 1-214) and hIL-2Rβ (residues 1-214) receptor subunits; hexahistidine (C); made in house; host or cells: HEK 293F
T3 sequence (P01589 22-235): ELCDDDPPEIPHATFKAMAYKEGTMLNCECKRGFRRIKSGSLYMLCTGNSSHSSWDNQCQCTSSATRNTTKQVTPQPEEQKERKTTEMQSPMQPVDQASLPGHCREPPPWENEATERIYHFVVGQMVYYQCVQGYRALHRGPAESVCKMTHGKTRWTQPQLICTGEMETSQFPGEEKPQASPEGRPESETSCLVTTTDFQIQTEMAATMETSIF
Method: as §3, §6, §5

[9] = target: T4, immobilized hIL-2 (Homo sapiens, UniProt P60568); assay: Bio-layer interferometry binding to immobilized hIL-2; conditions: biotinylated hIL-2 immobilized
T4 construct: The full hIL-2 cytokine (residues 1-133) and the extracellular domains; hexahistidine (C); made in house; host or cells: HEK 293F
T4 sequence (P60568 21-153): as the sequence (P60568 21-153) above
Method: as §3, §4

Q: For “F5111 IC LN35: immunocytokine: hIL-2 fused to N-terminus of F5111 antibody light chain by 35-amino acid (Gly4Ser)7 linker”, which “expansion of FOXP3+ cells compared to untreated cells” value [1] is on record?
A: The value was “expanded FOXP3+ cells”.

Q: And the “selective activation of IL-2Rα^+ TReg-like cells over IL-2Rα^− TEff-like cells (bias)” value [2]?
A: Its value is “greater bias than F5111 IC LN15 and the hIL-2/F5111 complex”.

Q: What about the “STAT5 activation on IL-2Rα^+ YT-1 cells” value [2] of the same substance?
A: Its value is “sub-nanomolar concentrations”.

Q: What about the “STAT5 activation on IL-2Rα^− YT-1 cells” value [3] of the same substance?
A: Its value is “immeasurable”.

Q: What about the “stimulation time of maximum pSTAT5 activation” value [4] of the same substance?
A: Its value is 60 minutes.

Q: What about the “activation (pSTAT5) of CD4^+ T cells” value ([4]; various doses, 20, 40, 60, or 120 minutes) of the same substance?
A: Its value is “dose-dependent manner”.

Q: What about the “STAT5 activation of TReg cells compared to CD8^+ and CD4^+ effector T cells” value [5] of the same substance?
A: The value was “significantly more potent activation”.

Q: And the “binding to IL-2Rβ compared to free IL-2” value [6]?
A: Its value is “significant reduction in the binding affinity”.

Q: For “F5111 IC LN15: immunocytokine: hIL-2 fused to N-terminus of F5111 antibody light chain by 15-amino acid (Gly4Ser)3 linker”, which “binding affinity for hIL-2 relative to F5111 Ab” value [7] is on record?
A: The value was “significant reduction in binding affinity”.

Q: And the “binding to IL-2Rα compared to free IL-2” value [8]?
A: The value was “equal potency to the free IL-2 cytokine”.

Q: And the “STAT5 activation on IL-2Rα^+ YT-1 cells” value [2]?
A: Its value is “only mildly impaired”.

Q: And the “STAT5 activation on IL-2Rα^− YT-1 cells” value [3]?
A: Its value is “dramatically reduced”.

Q: And the “binding affinity for hIL-2 relative to F5111 Ab” value [9]?
A: Its value is “significant reduction in binding affinity”.

Q: And the “binding to IL-2Rβ compared to free IL-2” value [6]?
A: Its value is “significantly impaired binding”.

Q: With “F5111 IC LN25: immunocytokine: hIL-2 fused to N-terminus of F5111 antibody light chain by 25-amino acid (Gly4Ser)5 linker” as the substance, how does the “selective activation of IL-2Rα^+ TReg-like cells over IL-2Rα^− TEff-like cells (bias)” value [2] read?
A: Its value is “greater bias than F5111 IC LN15 and the hIL-2/F5111 complex”.

Q: What about the “STAT5 activation on IL-2Rα^+ YT-1 cells” value [2] of the same substance?
A: The value was “sub-nanomolar concentrations”.

Q: What about the “STAT5 activation on IL-2Rα^− YT-1 cells” value [3] of the same substance?
A: The value was “immeasurable”.

Q: What about the “binding to IL-2Rβ compared to free IL-2” value [6] of the same substance?
A: Its value is “significant reduction in the binding affinity”.
